We go through 20 molecules from patent US20230072683A1, “PYRIDO-PYRIMIDIN DERIVATIVES AND PHARMACEUTICAL COMPOSITION, FOR USE IN PREVENTING OR TREATING PI3 KINASE RELATED DISEASES, COMPRISING SAME AS ACTIVE INGREDIENT” (BORYUNG PHARMACEUTICAL CO., LTD, priority 2019, published 2023).

Broadly, the inhibition is the relative decrease from the control value, in per cent.

In one experiment the target is DNA-PK(h) (Homo sapiens, UniProt P78527). Put plainly: Evaluation of inhibitory activity against DNA-PK (HTRF kinase assay, GST-cMyc-p53 substrate). Type of experiment: biochemical. Conditions: for inhibition at 0.01 µM: compound concentration 0.01 μM, read-out: EXP_VALUE(% Inhibition) DNA-PK(h) 0.01 μM; for inhibition at 0.1 µM: compound concentration 0.1 μM, read-out: EXP_VALUE(% Inhibition) DNA-PK(h) 0.1 μM. A digest of the protocol: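 Human DNA-PK with 50 μM GST-cMyc-p53 substrate; reaction started with Mg/ATP, run 30 min at room temperature, stopped with EDTA. Phospho-Ser15 p53 detected by HTRF (Eu anti-phospho-Ser15, d2 anti-GST), signal = 10000×(Em 665/Em 620).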

For experiment [1], the target named is PI3K-δ (PI3K(p1108/p857) (h)) (Homo sapiens, UniProt O00329). Put plainly: Evaluation of inhibitory activity against PI3K-δ (HTRF kinase assay). Particulars: for inhibition at 0.01 µM: compound concentration 0.01 μM, read-out: EXP_VALUE(% Inhibition) PI3K-δ 0.01 μM; for inhibition at 0.1 µM: compound concentration 0.1 μM, read-out: EXP_VALUE(% Inhibition) PI3K-δ 0.1 μM. It counts as biochemical. The essentials:
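HTRF read-out (665/620 nm ratio ×10000) used Eu-labelled anti-GST, GST-tagged GRP1 PH domain and streptavidin-allophycocyanin after EDTA/PIP3 stop.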
On the technique in general: Time-resolved FRET reads energy transfer from a long-lived donor to a nearby acceptor.

SMILES strings stand for the structures.

PI3K-δ (PI3K(p1108/p857) (h)), sequence (O00329 whole entry, the tested form may be a part): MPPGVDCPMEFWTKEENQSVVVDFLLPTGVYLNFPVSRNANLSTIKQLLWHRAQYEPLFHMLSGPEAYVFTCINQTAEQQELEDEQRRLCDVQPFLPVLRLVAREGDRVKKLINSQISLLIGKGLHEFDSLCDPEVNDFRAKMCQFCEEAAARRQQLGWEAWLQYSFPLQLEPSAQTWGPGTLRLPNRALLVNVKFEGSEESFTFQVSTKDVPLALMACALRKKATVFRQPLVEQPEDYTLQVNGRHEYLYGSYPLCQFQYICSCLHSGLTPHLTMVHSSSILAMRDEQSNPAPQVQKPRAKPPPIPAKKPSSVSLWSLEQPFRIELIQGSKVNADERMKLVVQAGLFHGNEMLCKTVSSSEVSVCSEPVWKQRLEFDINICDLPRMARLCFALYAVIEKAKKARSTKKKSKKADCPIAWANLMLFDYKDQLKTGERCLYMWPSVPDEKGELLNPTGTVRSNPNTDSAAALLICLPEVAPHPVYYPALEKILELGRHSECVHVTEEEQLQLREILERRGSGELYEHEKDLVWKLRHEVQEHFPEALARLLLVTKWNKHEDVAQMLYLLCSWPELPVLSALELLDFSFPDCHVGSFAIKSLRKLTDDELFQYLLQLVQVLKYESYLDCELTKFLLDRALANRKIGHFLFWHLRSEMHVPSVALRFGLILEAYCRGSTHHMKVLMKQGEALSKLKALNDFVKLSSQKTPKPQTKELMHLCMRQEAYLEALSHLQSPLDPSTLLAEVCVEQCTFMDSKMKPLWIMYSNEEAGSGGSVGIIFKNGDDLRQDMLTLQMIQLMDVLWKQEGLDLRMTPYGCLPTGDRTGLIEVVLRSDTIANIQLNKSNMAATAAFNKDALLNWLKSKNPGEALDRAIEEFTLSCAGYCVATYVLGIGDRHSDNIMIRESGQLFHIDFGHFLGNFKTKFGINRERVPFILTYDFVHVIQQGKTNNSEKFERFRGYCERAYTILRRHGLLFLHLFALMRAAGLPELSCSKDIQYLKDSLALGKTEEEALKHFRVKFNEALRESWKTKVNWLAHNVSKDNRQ
PI3K-δ (PI3K(p1108/p857) (h)), sequence (P27986 whole entry partner, the tested form may be a part): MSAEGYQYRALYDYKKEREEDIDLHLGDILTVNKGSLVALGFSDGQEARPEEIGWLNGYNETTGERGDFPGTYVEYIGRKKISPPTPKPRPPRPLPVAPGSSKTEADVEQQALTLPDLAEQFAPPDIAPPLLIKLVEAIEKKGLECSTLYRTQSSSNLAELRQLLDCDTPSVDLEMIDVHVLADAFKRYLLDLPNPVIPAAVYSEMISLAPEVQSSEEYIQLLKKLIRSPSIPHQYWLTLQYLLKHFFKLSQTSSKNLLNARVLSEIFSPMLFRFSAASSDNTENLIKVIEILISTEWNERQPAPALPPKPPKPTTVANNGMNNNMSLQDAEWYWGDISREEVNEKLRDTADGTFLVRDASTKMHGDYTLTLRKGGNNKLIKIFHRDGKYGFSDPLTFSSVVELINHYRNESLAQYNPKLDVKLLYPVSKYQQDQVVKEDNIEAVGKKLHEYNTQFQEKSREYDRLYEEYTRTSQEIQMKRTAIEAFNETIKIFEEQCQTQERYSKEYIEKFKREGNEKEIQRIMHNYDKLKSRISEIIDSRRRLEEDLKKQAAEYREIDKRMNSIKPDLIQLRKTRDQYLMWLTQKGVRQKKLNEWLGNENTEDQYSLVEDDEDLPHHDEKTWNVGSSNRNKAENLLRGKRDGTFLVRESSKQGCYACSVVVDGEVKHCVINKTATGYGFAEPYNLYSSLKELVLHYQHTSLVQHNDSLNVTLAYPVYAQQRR

For `C[C@H](Nc1ncnc2[nH]ccc(=O)c12)c1c(Cl)c2cccc(-c3ccc4c(c3)OCCO4)c2c(=O)n1-c1ccccc1` [Example 253, (S)-4-((1-(4-chloro-8-(2,3-dihydrobenzo[b][1,4]dioxin-6-yl)-1-oxo-2-phenyl-1,2-dihydroisoquinolin-3-yl)ethyl)amino)pyrido[2,3-d]pyrimidin-5(8H)-one], on DNA-PK(h), the inhibition at 0.01 µM stood at 78% and the inhibition at 0.1 µM stood at 97%. Besides, in experiment [1], the inhibition at 0.01 µM is 105% and the inhibition at 0.1 µM is 102%.
For `C[C@H](Nc1ncnc2[nH]ccc(=O)c12)c1c(Cl)c2cccc(-c3ccc(-c4ccccc4)cc3)c2c(=O)n1-c1ccccc1` [Example 254, (S)-4-((1-(8-([1,1′-biphenyl]-4-yl)-4-chloro-1-oxo-2-phenyl-1,2-dihydroisoquinolin-3-yl)ethyl)amino)pyrido[2,3-d]pyrimidin-5(8H)-one] the same measures were 40%, 82%, 96% and 110%.
For `Cc1ccc(-c2cccc3c(Cl)c([C@H](C)Nc4ncnc5[nH]ccc(=O)c45)n(-c4ccccc4)c(=O)c23)cc1` [Example 255, (S)-4-((1-(4-chloro-1-oxo-2-phenyl-8-(p-tolyl)-1,2-dihydroisoquinolin-3-yl)ethyl)amino)pyrido[2,3-d]pyrimidin-5(8H)-one], in that order: 15.6%, 73.6%, 25.1% and 50.9%.
Take `C[C@H](Nc1ncnc2[nH]ccc(=O)c12)c1c(Cl)c2cccc(-c3ccc(C(F)(F)F)cc3Cl)c2c(=O)n1-c1ccccc1` [Example 256, (S)-4-((1-(4-chloro-8-(2-chloro-4-(trifluoromethyl)phenyl)-1-oxo-2-phenyl-1,2-dihydroisoquinolin-3-yl)ethyl)amino)pyrido[2,3-d]pyrimidin-5(8H)-one]: the inhibition at 0.01 µM amounted to 44% on DNA-PK(h) and 75% in experiment [1]. Also, the inhibition at 0.1 µM on DNA-PK(h) stood at 77%; in experiment [1] it was 100%.
Regarding `Cc1ccc(-c2cccc3c(Cl)c([C@H](C)Nc4ncnc5[nH]ccc(=O)c45)n(-c4ccccc4)c(=O)c23)cn1` [Example 257, (S)-4-((1-(4-chloro-8-(6-methylpyridin-3-yl)-1-oxo-2-phenyl-1,2-dihydroisoquinolin-3-yl)ethyl)amino)pyrido[2,3-d]pyrimidin-5(8H)-one], at DNA-PK(h), the inhibition at 0.01 µM turned out to be 75% and the inhibition at 0.1 µM came to 98%. In experiment [1], the inhibition at 0.01 µM was 68% and the inhibition at 0.1 µM came out at 98%.
Regarding `C[C@H](Nc1ncnc2[nH]ccc(=O)c12)c1c(Cl)c2cccc(-c3ccc[nH]3)c2c(=O)n1-c1ccccc1` [Example 258, (S)-4-((1-(4-chloro-1-oxo-2-phenyl-8-(1H-pyrrol-2-yl)-1,2-dihydroisoquinolin-3-yl)ethyl)amino)pyrido[2,3-d]pyrimidin-5(8H)-one], at DNA-PK(h), the inhibition at 0.01 µM was found to be 13% and the inhibition at 0.1 µM was 12%. Also, in experiment [1], the inhibition at 0.01 µM worked out at 86% and the inhibition at 0.1 µM turned out to be 101%.
For `C[C@H](Nc1ncnc2[nH]ccc(=O)c12)c1c(Cl)c2cccc(-c3ccc(C#N)cc3)c2c(=O)n1-c1ccccc1` [Example 259, (S)-4-(4-chloro-1-oxo-3-(1-((5-oxo-5,8-dihydropyrido[2,3-d]pyrimidin-4-yl)amino)ethyl)-2-phenyl-1,2-dihydroisoquinolin-8-yl)benzonitrile], in that order: 50%, 86%, 108% and 116%.
For `Cc1c[nH]c2ccc(-c3cccc4cc([C@H](C)Nc5ncnc6[nH]ccc(=O)c56)n(-c5ccccc5)c(=O)c34)cc12` [Example 263, (S)-4-((1-(8-(3-methyl-1H-indol-5-yl)-1-oxo-2-phenyl-1,2-dihydroisoquinolin-3-yl)ethyl)amino)pyrido[2,3-d]pyrimidin-5(8H)-one], in that order: 6%, 52%, 77% and 89%.
With `C[C@H](Nc1ncnc2[nH]ccc(=O)c12)c1cc2cccc(-c3ccc(N(C)C)nc3)c2c(=O)n1-c1ccccc1` [Example 264, (S)-4-((1-(8-(6-(dimethylamino)pyridin-3-yl)-1-oxo-2-phenyl-1,2-dihydroisoquinolin-3-yl)ethyl)amino)pyrido[2,3-d]pyrimidin-5(8H)-one], on DNA-PK(h), the inhibition at 0.01 µM was 7% and the inhibition at 0.1 µM was 41%. Also, in experiment [1], the inhibition at 0.01 µM turned out to be 73% and the inhibition at 0.1 µM worked out at 82%.
With `C[C@H](Nc1ncnc2[nH]ccc(=O)c12)c1c(Cl)c2cccc(C#N)c2c(=O)n1-c1ccccc1` [Example 265, (S)-4-chloro-1-oxo-3-(1-((5-oxo-5,8-dihydropyrido[2,3-d]pyrimidin-4-yl)amino)ethyl)-2-phenyl-1,2-dihydroisoquinoline-8-carbonitrile], on DNA-PK(h), the inhibition at 0.01 µM was 40% and the inhibition at 0.1 µM amounted to 77%. Moreover, in experiment [1], the inhibition at 0.01 µM came to 71% and the inhibition at 0.1 µM was found to be 87%.
For `C[C@H](Nc1ncnc2[nH]ccc(=O)c12)c1cc2cccc(C#N)c2c(=O)n1-c1ccccc1` [Example 266, (S)-1-oxo-3-(1-((5-oxo-5,8-dihydropyrido[2,3-d]pyrimidin-4-yl)amino)ethyl)-2-phenyl-1,2-dihydroisoquinoline-8-carbonitrile] the same measures were -10%, 3%, 69% and 88%.
As for `CC(=O)c1cccc2c(Cl)c([C@H](C)Nc3ncnc4[nH]ccc(=O)c34)n(-c3ccccc3)c(=O)c12` [Example 267, (S)-4-((1-(8-acetyl-4-chloro-1-oxo-2-phenyl-1,2-dihydroisoquinolin-3-yl)ethyl)amino)pyrido[2,3-d]pyrimidin-5(8H)-one], the results for the inhibition at 0.01 µM (at DNA-PK(h); in experiment [1]) were 63% and 92%, respectively.
For `CCCC(=O)c1cccc2c(Cl)c([C@H](C)Nc3ncnc4[nH]ccc(=O)c34)n(-c3ccccc3)c(=O)c12` [Example 268, (S)-4-((1-(8-butyryl-4-chloro-1-oxo-2-phenyl-1,2-dihydroisoquinolin-3-yl)ethyl)amino)pyrido[2,3-d]pyrimidin-5(8H)-one], in that order: 27% and 76%.
For the molecule `C[C@H](Nc1ncnc2[nH]ccc(=O)c12)c1c(Cl)c2cccc(C(=O)C3CC3)c2c(=O)n1-c1ccccc1` [Example 269, (S)-4-((1-(4-chloro-8-(cyclopropanecarbonyl)-1-oxo-2-phenyl-1,2-dihydroisoquinolin-3-yl)ethyl)amino)pyrido[2,3-d]pyrimidin-5(8H)-one], the inhibition at 0.01 µM at DNA-PK(h) was determined as 26%; in experiment [1] it was 37%.
For `C[C@H](Nc1ncnc2[nH]ccc(=O)c12)c1c(Cl)c2cccc(C=O)c2c(=O)n1-c1ccccc1` [Example 271, (S)-4-chloro-1-oxo-3-(1-((5-oxo-5,8-dihydropyrido[2,3-d]pyrimidin-4-yl)amino)ethyl)-2-phenyl-1,2-dihydroisoquinolin-8-carbaldehyde] the same measures were 19% and 60%.
Consider `C[C@H](Nc1ncnc2[nH]ccc(=O)c12)c1c(Cl)c2cccc(/C=N/O)c2c(=O)n1-c1ccccc1` [Example 273, (S,E)-4-chloro-1-oxo-3-(1-((5-oxo-5,8-dihydropyrido[2,3-d]pyrimidin-4-yl)amino)ethyl)-2-phenyl-1,2-dihydroisoquinoline-8-carbaldehyde oxime], for which the inhibition at 0.01 µM is 36% at DNA-PK(h) and 44% in experiment [1].
On to `CNC(=O)c1cccc2c(Cl)c([C@H](C)Nc3ncnc4[nH]ccc(=O)c34)n(-c3ccccc3)c(=O)c12` [Example 274, (S)-4-chloro-N-methyl-1-oxo-3-(1-((5-oxo-5,8-dihydropyrido[2,3-d]pyrimidin-4-yl)amino)ethyl)-2-phenyl-1,2-dihydroisoquinoline-8-carboxamide], for which the inhibition at 0.01 µM worked out at 18% at DNA-PK(h) and 99% in experiment [1].
For `CCCNC(=O)c1cccc2c(Cl)c([C@H](C)Nc3ncnc4[nH]ccc(=O)c34)n(-c3ccccc3)c(=O)c12` [Example 275, (S)-4-chloro-1-oxo-3-(1-((5-oxo-5,8-dihydropyrido[2,3-d]pyrimidin-4-yl)amino)ethyl)-2-phenyl-N-propyl-1,2-dihydroisoquinoline-8-carboxamide], in that order: 8% and 104%.
For `C[C@H](Nc1ncnc2[nH]ccc(=O)c12)c1c(Cl)c2cccc(C(=O)NC3COC3)c2c(=O)n1-c1ccccc1` [Example 276, (S)-4-chloro-N-(oxetan-3-yl)-1-oxo-3-(1-((5-oxo-5,8-dihydropyrido[2,3-d]pyrimidin-4-yl)amino)ethyl)-2-phenyl-1,2-dihydroisoquinoline-8-carboxamide] the same measures were 29% and 96%.
For `C[C@H](Nc1ncnc2[nH]ccc(=O)c12)c1c(Cl)c2cccc(C(=O)NC3CCC3)c2c(=O)n1-c1ccccc1` [Example 277, (S)-4-chloro-N-cyclobutyl-1-oxo-3-(1-((5-oxo-5,8-dihydropyrido[2,3-d]pyrimidin-4-yl)amino)ethyl)-2-phenyl-1,2-dihydroisoquinoline-8-carboxamide], in that order: 8% and 99%.
